Test results published in patent US10961236B2, “(S)-2-(1-cyclopropylethyl)-5-(4-methyl-2-((6-(2-oxopyrrolidin-1-yl)pyridin-2-yl)amino) thiazol-5-yl)-7-(methylsulfonyl)isoindolin-1-one as a phosphatidylinositol 3-kinase inhibitor” (AstraZeneca AB, priority 2016, dated 2021).

Experiments:
Type in all cases: biochemical
[1] = molecular target: recombinant human PI3Kα (6-His(p110-p85α)) (Homo sapiens (Human), UniProt P42336); assay: Enzymatic activity assay for recombinant human PI3Kα (ADP-Glo); conditions: 1.2 nM PI3Kα, 20 μM ATP, 80 μM DiC8-PIP2, ADP-Glo
How it was run: (§1)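 ADP-Glo luminescence after DiC8-PIP2 phosphorylation at RT: 80 μM lipid substrate, 20 μM ATP, 1.2 nM enzyme (0.6 nM for δ) in Tris pH 7.4 with MgCl2, DTT, CHAPS. Compounds pre-incubated 15 min with enzyme, then 60 min reaction; DMSO ≤1%.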

[2] = molecular target: recombinant human PI3Kδ (6-His(p110-p85α)) (Homo sapiens (Human), UniProt O00329); assay: Enzymatic activity assay for recombinant human PI3Kδ (ADP-Glo); conditions: 0.6 nM PI3Kδ, 20 μM ATP, 80 μM DiC8-PIP2, ADP-Glo
How it was run: (§2)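 ADP-Glo luminescence after DiC8-PIP2 (80 μM) phosphorylation with 20 μM ATP in 50 mM Tris pH 7.4, 3 mM MgCl2, 2.1 mM DTT, 0.05% CHAPS at room temperature. Enzyme 1.2 nM PI3Kγ or 0.6 nM PI3Kδ; inhibitors pre-incubated 15 min, then 60 min reaction.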

[3] = molecular target: recombinant human PI3Kβ (6-His(p110-p85α)) (Homo sapiens (Human), UniProt P42338); assay: Enzymatic activity assay for recombinant human PI3Kβ (ADP-Glo); conditions: 1.2 nM PI3Kβ, 20 μM ATP, 80 μM DiC8-PIP2, ADP-Glo
How it was run: as §1

[4] = molecular target: recombinant human PI3Kγ ((aa144-1102)-6His) (Homo sapiens (Human), UniProt P48736); assay: Enzymatic activity assay for recombinant human PI3Kγ (ADP-Glo); conditions: 1.2 nM PI3Kγ, 20 μM ATP, 80 μM DiC8-PIP2, ADP-Glo
How it was run: as §2

recombinant human PI3Kδ (6-His(p110-p85α)), sequence (O00329 whole entry): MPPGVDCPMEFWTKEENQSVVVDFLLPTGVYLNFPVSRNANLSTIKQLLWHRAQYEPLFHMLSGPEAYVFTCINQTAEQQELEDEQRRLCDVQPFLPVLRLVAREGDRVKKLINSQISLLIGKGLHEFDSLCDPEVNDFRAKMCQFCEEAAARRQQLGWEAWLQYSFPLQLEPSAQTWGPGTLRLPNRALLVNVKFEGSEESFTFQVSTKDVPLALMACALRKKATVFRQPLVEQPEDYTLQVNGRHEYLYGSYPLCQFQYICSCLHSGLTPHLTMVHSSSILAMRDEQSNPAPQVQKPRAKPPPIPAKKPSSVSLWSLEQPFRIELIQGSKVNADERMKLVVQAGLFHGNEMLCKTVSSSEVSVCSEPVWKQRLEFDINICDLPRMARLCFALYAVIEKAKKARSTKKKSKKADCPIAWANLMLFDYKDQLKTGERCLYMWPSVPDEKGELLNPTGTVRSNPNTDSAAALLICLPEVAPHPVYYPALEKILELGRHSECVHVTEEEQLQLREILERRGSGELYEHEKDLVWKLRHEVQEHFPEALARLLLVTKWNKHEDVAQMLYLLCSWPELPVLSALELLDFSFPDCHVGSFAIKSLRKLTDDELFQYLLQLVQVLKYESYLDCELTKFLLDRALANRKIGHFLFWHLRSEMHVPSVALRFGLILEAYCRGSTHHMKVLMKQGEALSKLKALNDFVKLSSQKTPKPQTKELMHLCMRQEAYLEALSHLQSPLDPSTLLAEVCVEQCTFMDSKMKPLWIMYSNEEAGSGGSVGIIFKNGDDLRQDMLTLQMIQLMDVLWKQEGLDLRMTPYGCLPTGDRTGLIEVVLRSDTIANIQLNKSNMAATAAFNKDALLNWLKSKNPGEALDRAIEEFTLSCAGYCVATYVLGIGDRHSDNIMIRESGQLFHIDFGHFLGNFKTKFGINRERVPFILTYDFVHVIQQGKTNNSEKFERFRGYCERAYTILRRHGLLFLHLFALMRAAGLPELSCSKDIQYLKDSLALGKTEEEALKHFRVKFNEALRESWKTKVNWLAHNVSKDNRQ
recombinant human PI3Kδ (6-His(p110-p85α)), sequence (P27986 whole entry partner): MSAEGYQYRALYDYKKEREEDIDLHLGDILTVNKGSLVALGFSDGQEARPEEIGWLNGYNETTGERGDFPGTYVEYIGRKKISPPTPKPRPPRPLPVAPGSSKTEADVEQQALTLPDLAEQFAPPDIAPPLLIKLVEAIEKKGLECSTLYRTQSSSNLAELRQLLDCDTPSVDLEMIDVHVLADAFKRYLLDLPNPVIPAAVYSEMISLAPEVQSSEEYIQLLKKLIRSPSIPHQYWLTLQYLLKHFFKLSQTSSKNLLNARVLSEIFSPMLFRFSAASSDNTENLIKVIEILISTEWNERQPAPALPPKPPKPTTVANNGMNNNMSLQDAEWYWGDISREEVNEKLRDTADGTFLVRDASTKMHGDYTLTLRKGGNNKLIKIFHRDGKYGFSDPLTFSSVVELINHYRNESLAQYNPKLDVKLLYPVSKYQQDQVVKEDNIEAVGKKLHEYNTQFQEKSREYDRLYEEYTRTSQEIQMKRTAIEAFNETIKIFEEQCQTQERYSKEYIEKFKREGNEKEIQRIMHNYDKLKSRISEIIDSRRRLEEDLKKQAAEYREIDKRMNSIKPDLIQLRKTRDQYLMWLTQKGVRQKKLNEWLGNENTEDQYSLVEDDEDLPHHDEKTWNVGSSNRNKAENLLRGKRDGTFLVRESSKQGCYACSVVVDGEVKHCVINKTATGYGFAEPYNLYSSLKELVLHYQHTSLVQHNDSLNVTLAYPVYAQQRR
recombinant human PI3Kγ ((aa144-1102)-6His), sequence (P48736 144-1102): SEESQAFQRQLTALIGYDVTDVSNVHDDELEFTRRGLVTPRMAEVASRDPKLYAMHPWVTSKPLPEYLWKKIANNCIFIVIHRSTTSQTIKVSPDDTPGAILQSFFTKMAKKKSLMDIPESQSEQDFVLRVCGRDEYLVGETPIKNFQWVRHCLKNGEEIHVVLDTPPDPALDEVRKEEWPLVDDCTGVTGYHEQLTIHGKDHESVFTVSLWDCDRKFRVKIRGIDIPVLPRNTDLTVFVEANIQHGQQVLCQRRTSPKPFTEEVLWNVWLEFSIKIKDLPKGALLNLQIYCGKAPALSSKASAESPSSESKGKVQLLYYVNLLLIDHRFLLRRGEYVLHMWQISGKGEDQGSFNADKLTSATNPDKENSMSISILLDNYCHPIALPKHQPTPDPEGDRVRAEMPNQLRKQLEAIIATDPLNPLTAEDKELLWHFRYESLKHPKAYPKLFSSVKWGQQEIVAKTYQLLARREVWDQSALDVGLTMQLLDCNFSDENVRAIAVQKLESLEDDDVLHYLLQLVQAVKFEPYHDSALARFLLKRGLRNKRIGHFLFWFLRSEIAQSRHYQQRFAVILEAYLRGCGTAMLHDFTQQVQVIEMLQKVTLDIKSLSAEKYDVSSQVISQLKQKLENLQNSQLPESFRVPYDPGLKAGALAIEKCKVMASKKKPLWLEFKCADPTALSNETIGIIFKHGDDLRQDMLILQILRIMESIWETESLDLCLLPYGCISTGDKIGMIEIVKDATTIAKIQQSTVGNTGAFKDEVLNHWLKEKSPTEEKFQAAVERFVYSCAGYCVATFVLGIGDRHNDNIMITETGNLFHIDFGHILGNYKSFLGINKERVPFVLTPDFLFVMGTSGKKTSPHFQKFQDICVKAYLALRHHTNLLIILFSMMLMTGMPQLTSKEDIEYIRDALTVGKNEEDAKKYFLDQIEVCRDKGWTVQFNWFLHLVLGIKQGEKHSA
recombinant human PI3Kβ (6-His(p110-p85α)), sequence (P42338 whole entry): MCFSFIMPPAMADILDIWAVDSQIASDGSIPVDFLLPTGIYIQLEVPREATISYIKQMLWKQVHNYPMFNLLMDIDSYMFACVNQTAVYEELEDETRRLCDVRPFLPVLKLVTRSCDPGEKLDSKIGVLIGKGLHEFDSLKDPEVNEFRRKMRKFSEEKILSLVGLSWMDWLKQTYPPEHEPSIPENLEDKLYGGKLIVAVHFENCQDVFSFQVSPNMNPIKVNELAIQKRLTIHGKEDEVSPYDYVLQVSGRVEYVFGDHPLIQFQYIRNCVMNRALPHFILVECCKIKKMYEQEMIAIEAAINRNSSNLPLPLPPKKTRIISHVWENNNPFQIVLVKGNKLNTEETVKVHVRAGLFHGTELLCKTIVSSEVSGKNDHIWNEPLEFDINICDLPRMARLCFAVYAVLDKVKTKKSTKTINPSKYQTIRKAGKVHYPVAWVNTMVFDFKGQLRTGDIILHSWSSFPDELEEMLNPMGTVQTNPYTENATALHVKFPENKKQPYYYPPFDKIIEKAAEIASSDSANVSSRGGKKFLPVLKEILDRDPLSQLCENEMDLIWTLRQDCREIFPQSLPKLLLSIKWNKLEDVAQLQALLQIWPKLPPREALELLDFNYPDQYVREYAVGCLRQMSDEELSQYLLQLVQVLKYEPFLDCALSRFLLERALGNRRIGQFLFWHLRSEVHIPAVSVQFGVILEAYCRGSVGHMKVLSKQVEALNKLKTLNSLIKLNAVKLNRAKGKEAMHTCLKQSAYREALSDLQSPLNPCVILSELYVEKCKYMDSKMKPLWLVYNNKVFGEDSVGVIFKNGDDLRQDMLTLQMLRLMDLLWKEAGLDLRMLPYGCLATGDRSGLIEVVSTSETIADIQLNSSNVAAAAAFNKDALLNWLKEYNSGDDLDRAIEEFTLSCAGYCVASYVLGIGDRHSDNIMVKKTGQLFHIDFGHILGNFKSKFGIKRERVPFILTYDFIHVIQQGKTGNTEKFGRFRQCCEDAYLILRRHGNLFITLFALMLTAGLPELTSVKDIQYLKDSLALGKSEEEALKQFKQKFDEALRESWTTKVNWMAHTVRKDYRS
recombinant human PI3Kβ (6-His(p110-p85α)), sequence (P27986 whole entry partner): as the sequence (P27986 whole entry partner) above
recombinant human PI3Kα (6-His(p110-p85α)), sequence (P42336 whole entry): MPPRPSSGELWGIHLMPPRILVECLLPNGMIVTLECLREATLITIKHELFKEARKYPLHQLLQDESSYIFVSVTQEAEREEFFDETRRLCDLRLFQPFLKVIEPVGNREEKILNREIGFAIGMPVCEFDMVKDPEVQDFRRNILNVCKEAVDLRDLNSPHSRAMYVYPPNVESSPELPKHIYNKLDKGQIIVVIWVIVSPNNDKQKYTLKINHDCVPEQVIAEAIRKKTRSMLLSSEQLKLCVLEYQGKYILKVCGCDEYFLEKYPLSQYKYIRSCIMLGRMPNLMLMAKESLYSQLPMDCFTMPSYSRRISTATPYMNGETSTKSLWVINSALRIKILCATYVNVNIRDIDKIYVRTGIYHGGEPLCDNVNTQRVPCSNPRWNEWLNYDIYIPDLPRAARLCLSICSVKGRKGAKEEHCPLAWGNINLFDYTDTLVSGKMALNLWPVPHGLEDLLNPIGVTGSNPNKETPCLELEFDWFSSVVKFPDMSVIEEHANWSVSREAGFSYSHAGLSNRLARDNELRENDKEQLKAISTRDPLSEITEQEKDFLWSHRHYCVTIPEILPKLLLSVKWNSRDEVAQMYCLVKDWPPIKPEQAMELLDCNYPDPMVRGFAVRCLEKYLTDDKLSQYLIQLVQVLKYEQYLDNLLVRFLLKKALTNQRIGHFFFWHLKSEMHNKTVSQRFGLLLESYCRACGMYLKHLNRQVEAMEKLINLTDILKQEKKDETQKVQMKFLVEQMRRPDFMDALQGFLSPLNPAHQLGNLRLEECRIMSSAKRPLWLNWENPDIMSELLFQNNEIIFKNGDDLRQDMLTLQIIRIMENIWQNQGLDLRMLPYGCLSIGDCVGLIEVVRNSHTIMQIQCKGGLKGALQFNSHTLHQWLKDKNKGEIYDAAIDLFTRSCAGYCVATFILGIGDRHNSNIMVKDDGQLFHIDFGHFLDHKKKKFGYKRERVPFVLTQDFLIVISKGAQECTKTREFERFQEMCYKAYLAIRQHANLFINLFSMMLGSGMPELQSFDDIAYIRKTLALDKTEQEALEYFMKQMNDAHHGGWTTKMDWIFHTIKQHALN
recombinant human PI3Kα (6-His(p110-p85α)), sequence (P27986 whole entry partner): as the sequence (P27986 whole entry partner) above

Structure (SMILES) | IC50 [1] | IC50 [2] | IC50 [3] | IC50 [4]
CNS(=O)(=O)c1cc(-c2sc(Nc3cccc(N4CCNC(C)(C)C4=O)n3)nc2C)cc2c1C(=O)N([C@@H](C)C1CC1)C2 [Example 47, 2-[(1S)-1-Cyclopropylethyl]-6-(2-{[6-(3,3-dimethyl-2-oxopiperazin-1-yl)pyridin-2-yl]amino}-4-methyl-1,3-thiazol-5-yl)-N-methyl-3-oxo-2,3-dihydro-1H-isoindole-4-sulfonamide] | 97 nM | 4.4 nM | 824 nM | 1.3 nM
CNS(=O)(=O)c1cc(-c2sc(Nc3cccc(N4C(=O)CNC[C@@H]4C)n3)nc2C)cc2c1C(=O)N([C@@H](C)C1CC1)C2 [Example 49, 2-[(1S)-1-Cyclopropylethyl]-N-methyl-6-[4-methyl-2-({6-[(2S)-2-methyl-6-oxopiperazin-1-yl]pyridin-2-yl}amino)-1,3-thiazol-5-yl]-3-oxo-2,3-dihydro-1H-isoindole-4-sulfonamide] | 87 nM | 2.6 nM | 800 nM | 1.9 nM
Cc1nc(Nc2cccc(N3CCNCC3=O)n2)sc1-c1cc2c(c(S(=O)(=O)NC(C)C)c1)C(=O)N([C@@H](C)C1CC1)C2 [Example 51, 2-[(1S)-1-Cyclopropylethyl]-6-(4-methyl-2-{[6-(2-oxopiperazin-1-yl)pyridin-2-yl]amino}-1,3-thiazol-5-yl)-3-oxo-N-(propan-2-yl)-2,3-dihydro-1H-isoindole-4-sulfonamide] | 134 nM | 1.1 nM | 415 nM | 1.5 nM
CNS(=O)(=O)c1cc(-c2sc(Nc3cccc(N4CCNCCC4=O)n3)nc2C)cc2c1C(=O)N([C@@H](C)C1CC1)C2 [Example 53, 2-[(1S)-1-Cyclopropylethyl]-N-methyl-6-(4-methyl-2-{[6-(7-oxo-1,4-diazepan-1-yl)pyridin-2-yl]amino}-1,3-thiazol-5-yl)-3-oxo-2,3-dihydro-1H-isoindole-4-sulfonamide] | 64 nM | 0.7 nM | 264 nM | 1.4 nM

Stronger by IC50 [1], values ahead:

IC50 [1] | IC50 [2] | IC50 [3] | IC50 [4] | Structure (SMILES)
54 nM | 0.8 nM | 271 nM | 1.4 nM | CCNS(=O)(=O)c1cc(-c2sc(Nc3cccc(N4CCNCC4=O)n3)nc2C)cc2c1C(=O)N([C@@H](C)C1CC1)C2 [Example 50, 2-[(1S)-1-Cyclopropylethyl]-N-ethyl-6-(4-methyl-2-{[6-(2-oxopiperazin-1-yl)pyridin-2-yl]amino}-1,3-thiazol-5-yl)-3-oxo-2,3-dihydro-1H-isoindole-4-sulfonamide]
24 nM | 0.8 nM | 123 nM | 1 nM | CNS(=O)(=O)c1cc(-c2sc(Nc3cccc(N4C(=O)CNC[C@H]4C)n3)nc2C)cc2c1C(=O)N([C@@H](C)C1CC1)C2 [Example 46, 2-[(1S)-1-Cyclopropylethyl]-N-methyl-6-[4-methyl-2-({6-[(2R)-2-methyl-6-oxopiperazin-1-yl]pyridin-2-yl}amino)-1,3-thiazol-5-yl]-3-oxo-2,3-dihydro-1H-isoindole-4-sulfonamide]
19 nM | 0.7 nM | 199 nM | 1.5 nM | CNS(=O)(=O)c1cc(-c2sc(Nc3cccc(N4CC(C)(C)NCC4=O)n3)nc2C)cc2c1C(=O)N([C@@H](C)C1CC1)C2 [Example 48, 2-[(1S)-1-Cyclopropylethyl]-6-(2-{[6-(5,5-dimethyl-2-oxopiperazin-1-yl)pyridin-2-yl]amino}-4-methyl-1,3-thiazol-5-yl)-N-methyl-3-oxo-2,3-dihydro-1H-isoindole-4-sulfonamide]
14 nM | 0.5 nM | 325 nM | 0.9 nM | CNS(=O)(=O)c1cc(-c2sc(Nc3cccc(N4CC[C@@H](O)C4=O)n3)nc2C)cc2c1C(=O)N([C@@H](C)C1CC1)C2 [Example 54, 2-[(1S)-1-Cyclopropylethyl]-6-[2-({6-[(3R)-3-hydroxy-2-oxopyrrolidin-1-yl]pyridin-2-yl}amino)-4-methyl-1,3-thiazol-5-yl]-N-methyl-3-oxo-2,3-dihydro-1H-isoindole-4-sulfonamide]
